The source of these data is patent US7232906B2, “Substituted pyrrolines as kinase inhibitors” (Janssen Pharmaceutica N.V., priority 2002, dated 2007).

What all share (format): biochemical
For experiment [1], the target named is recombinant rabbit GSK-3β (Oryctolagus cuniculus, UniProt G1T8E2). In words: Glycogen Synthase Kinase-3 assay. On the set-up: GSK-3β Assay Activity, % @ 200 nM: scale not given here. Particulars: PPI-2 substrate; for IC50: 33P-ATP, 90 minutes at 30° C. On the procedure: Compounds were tested for the ability to inhibit recombinant rabbit GSK-3β using the following protocol. The test compound was added to a reaction mixture containing Protein phosphatase inhibitor-2 (PPI-2) (Calbiochem) (45 ng), rabbit GSK-3β (New England Biolabs) (0.75 units) and ^33P-ATP (1 μCi) in 50 mM Tris-HCl (pH 8.0), 10 mM MgCl2, 0.1% BSA, 1 mM DTT and 100 μM Sodium Vanadate. The mixture was reacted for 90 minutes at 30° C. to allow phosphorylation of the PPI-2 protein and then the protein in the reaction was precipitated using 10% TCA. The precipitated protein was collected on filter plates (MultiScreen-DV/Millipore), which were subsequently washed. Finally, the radioactivity was quantified using a TopCount Scintillation Counter (Packard). […] Staurosporine or Valproate, known inhibitors of GSK-3β, were used as a positive control for screening.
Chain of recombinant rabbit GSK-3β (G1T8E2 1-432): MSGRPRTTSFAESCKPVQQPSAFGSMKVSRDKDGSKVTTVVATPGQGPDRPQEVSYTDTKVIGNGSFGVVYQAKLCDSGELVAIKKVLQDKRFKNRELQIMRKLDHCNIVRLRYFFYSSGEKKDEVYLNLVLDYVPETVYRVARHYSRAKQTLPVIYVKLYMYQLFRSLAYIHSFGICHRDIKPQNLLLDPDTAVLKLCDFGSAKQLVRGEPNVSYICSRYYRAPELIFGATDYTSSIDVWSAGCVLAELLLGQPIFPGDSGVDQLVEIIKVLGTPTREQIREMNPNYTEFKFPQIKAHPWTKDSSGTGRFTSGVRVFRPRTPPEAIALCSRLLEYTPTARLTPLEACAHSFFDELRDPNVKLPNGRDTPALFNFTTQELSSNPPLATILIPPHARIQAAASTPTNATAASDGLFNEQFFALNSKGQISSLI

Experiment [2] has as its target PKC β-II (Homo sapiens, UniProt P05771). Briefly: Protein Kinase C histone-based assay, β-II isoform. Particulars: histone III substrate; for IC50: 30 μM ATP, approximately ± 30 percent margin of error, read-out: PKC Activity Beta II (IC50, Histone Based Assay). More on the design: PKC Activity Beta II, % @ 1 μM (Histone Based Assay): scale not given here. Here is the method:
(§1) Compounds were evaluated for PKC selectivity using histone III as the substrate. The PKC isoforms α, β-II or γ were added to a reaction mixture that contained 20 mM HEPES, (pH 7.4), 940 μM CaCl2, 10 mM MgCl2, 1 mM EGTA. 100 μg/mL phosphatidylserine, 20 μg/mL diacylglycerol, 30 μM ATP, 1 μCi (^33P)ATP and 200 μg/mL histone III. The reaction was incubated for 10 min at 30° C. Reactions were terminated by TCA precipitation and spotting on Whatman P81 filters. Filters were washed in 75 mM phosphoric acid and the radioactivity quantified by liquid scintillation counting.

For experiment [3], the target named is PKC α (Homo sapiens, UniProt P17252). In words: Protein Kinase C histone-based assay, α isoform. More on the design: PKC Activity Alpha, % @ 10 μM (Histone Based Assay): scale not given here. The following applies: histone III substrate; for IC50: 30 μM ATP, approximately ± 30 percent margin of error, read-out: PKC Activity Alpha (IC50, Histone Based Assay). On the procedure:
as §1

Experiment [4] deals with PKC γ (Homo sapiens, UniProt P05129). Briefly: Protein Kinase C histone-based assay, γ isoform. More on the design: PKC Activity Gamma, % @ 10 μM (Histone Based Assay): scale not given here. Particulars: histone III substrate; for IC50: 30 μM ATP, approximately ± 30 percent margin of error, read-out: PKC Activity Gamma (IC50, Histone Based Assay). On the procedure: as §1

Chain of PKC β-II (P05771 1-673 isoform P05771-2): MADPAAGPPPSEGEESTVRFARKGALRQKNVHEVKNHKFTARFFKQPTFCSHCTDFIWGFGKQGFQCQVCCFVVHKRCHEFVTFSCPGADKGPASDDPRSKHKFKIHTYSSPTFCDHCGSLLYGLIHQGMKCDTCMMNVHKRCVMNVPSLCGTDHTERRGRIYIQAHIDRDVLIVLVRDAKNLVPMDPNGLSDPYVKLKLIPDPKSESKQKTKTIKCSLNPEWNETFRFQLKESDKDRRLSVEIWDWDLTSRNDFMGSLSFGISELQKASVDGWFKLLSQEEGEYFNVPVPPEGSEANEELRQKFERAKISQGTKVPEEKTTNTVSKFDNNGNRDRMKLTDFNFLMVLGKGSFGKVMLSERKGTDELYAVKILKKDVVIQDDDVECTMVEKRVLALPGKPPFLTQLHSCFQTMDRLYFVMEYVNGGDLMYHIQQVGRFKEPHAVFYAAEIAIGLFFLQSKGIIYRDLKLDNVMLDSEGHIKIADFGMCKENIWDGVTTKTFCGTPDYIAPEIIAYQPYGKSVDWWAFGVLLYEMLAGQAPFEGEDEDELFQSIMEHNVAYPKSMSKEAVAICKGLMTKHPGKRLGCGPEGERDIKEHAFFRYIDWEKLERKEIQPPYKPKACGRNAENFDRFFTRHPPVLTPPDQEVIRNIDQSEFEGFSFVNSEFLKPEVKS

As to “3-(2-bromo-5-[3-(dimethylamino)propyl]phenyl]-4-(1-phenyl-1H-indol-3-yl)-1H-pyrrole-2,5-dione [Cpd 25]”, the IC50 in experiment [1] worked out at 110 nM.
Take “3-(3-bromophenyl)-4-[1-[3-(3-butynylmethylamino)propyl]-1H-indol-3-yl]-1H-pyrrole-2,5-dione [Cpd 22]”: the “GSK-3β Assay Activity, % @ 200 nM” value in experiment [1] came out at 62% @ 200 nM.
In the case of “3-[1-[3-(3-butynylmethylamino)propyl]-1H-indol-3-yl]-4-(3-iodophenyl)-1H-pyrrole-2,5-dione [Cpd 23]”, the “GSK-3β Assay Activity, % @ 200 nM” value in experiment [1] is listed as 67% @ 200 nM.
Same read-out and setting: in the case of `C=Cn1cc(C2=C(c3cccc(OCC(O)CN(C)C)c3)C(=O)NC2=O)c2ccccc21` (stereo not shown) [Cpd 2, 3-[3-[3-(dimethylamino)-2-hydroxypropoxy]phenyl]-4-(1-ethenyl-1H-indol-3-yl)-1H-pyrrole-2,5-dione] it was 72% @ 200 nM.
Consider `CCOC(Cn1cc(C2=C(c3ccccc3OC)C(=O)NC2=O)c2ccccc21)OCC` [Cpd 7, 3-[1-(2,2-diethoxyethyl)-1H-indol-3-yl]-4-(2-methoxy-phenyl)-1H-pyrrole-2,5-dione], for which, in experiment [2], the “PKC Activity Beta II, % @ 1 μM (Histone Based Assay)” value amounted to 68% @ 1 μM. In experiment [3], the “PKC Activity Alpha, % @ 10 μM (Histone Based Assay)” value (“PKC Activity Alpha, % @ 10 μM” for short) was 39% @ 10 μM. Besides, the “PKC Activity Gamma, % @ 10 μM (Histone Based Assay)” value (from here on “PKC Activity Gamma, % @ 10 μM”) in experiment [4] worked out at 54% @ 10 μM. Also, in experiment [1], the IC50 was 390 nM.
As for `COc1ccccc1C1=C(c2cn(CC=O)c3ccccc23)C(=O)NC1=O` [Cpd 8, 3-[2,5-dihydro-4-(2-methoxyphenyl)-2,5-dioxo-1H-pyrrol-3-yl]-1H-indole-1-acetaldehyde], the IC50 in experiment [1] was found to be 39 nM.
As for `COc1ccccc1C1=C(c2cn(CCN(C)CCO)c3ccccc23)C(=O)NC1=O` [Cpd 9, 3-[1-[2-[(2-hydroxyethyl)methylamino]ethyl]-1H-indol-3-yl]-4-(2-methoxyphenyl)-1H-pyrrole-2,5-dione], the “PKC Activity Beta II, % @ 1 μM (Histone Based Assay)” value in experiment [2] is recorded as 40% @ 1 μM. Besides, the “PKC Activity Alpha, % @ 10 μM” value in experiment [3] is 27% @ 10 μM. The “PKC Activity Gamma, % @ 10 μM” value in experiment [4] turned out to be 15% @ 10 μM. Moreover, the IC50 in experiment [1] was 27 nM.
Take `CN(C)CCCn1cc(C2=C(c3cccc4ccccc34)C(=O)NC2=O)c2ccccc21` [Cpd 12, 3-[1-[3-(dimethylamino)propyl]-1H-indol-3-yl]-4-(1-naphthalenyl)-1H-pyrrole-2,5-dione]: in experiment [1], the “GSK-3β Assay Activity, % @ 200 nM” value came to 64% @ 200 nM.
Take `CN(C)CC(O)COc1ccccc1C1=C(c2cn(CCO)c3ccccc23)C(=O)NC1=O` (stereo not shown) [Cpd 21, 3-[2-[3-(dimethylamino)-2-hydroxypropoxy]phenyl]-4-[1-(2-hydroxyethyl)-1H-indol-3-yl]-1H-pyrrole-2,5-dione]: the IC50 in experiment [2] was 51 nM; in experiment [3], 117 nM; in experiment [4], 477 nM.
As for `COc1ccccc1C1=C(c2cn(-c3cncnc3)c3ccccc23)C(=O)NC1=O` [Cpd 26, 3-(2-methoxyphenyl)-4-[1-(5-pyrimidinyl)-1H-indol-3-yl]-1H-pyrrole-2,5-dione], the IC50 in experiment [2] stood at 607 nM; in experiment [3], 2070 nM; in experiment [1] it was 8 nM. Further, the “PKC Activity Gamma, % @ 10 μM” value in experiment [4] came out at 29% @ 10 μM.
Take `COc1ccccc1C1=C(c2cn(-c3cccnc3)c3ccccc23)C(=O)NC1=O` [Cpd 27, 3-(2-methoxyphenyl)-4-[1-(3-pyridinyl)-1H-indol-3-yl]-1H-pyrrole-2,5-dione]: the IC50 in experiment [2] was 527 nM; in experiment [1], 26 nM. Also, the “PKC Activity Alpha, % @ 10 μM” value in experiment [3] stood at 66% @ 10 μM.
Turning to `O=C1NC(=O)C(c2cn(-c3cccnc3)c3ccccc23)=C1c1ccccc1O` [Cpd 28, 3-(2-hydroxyphenyl)-4-[1-(3-pyridinyl)-1H-indol-3-yl]-1H-pyrrole-2,5-dione], the IC50 in experiment [1] worked out at 68 nM.
For the compound `O=C1NC(=O)C(c2cn(-c3cccnc3)c3ccccc23)=C1c1ccc(O)cc1` [Cpd 29, 3-(4-hydroxyphenyl)-4-[1-(3-pyridinyl)-1H-indol-3-yl]-1H-pyrrole-2,5-dione], in experiment [1], the IC50 was found to be 96 nM.
With `CN(C)CCCn1cc(C2=C(c3csc4ccc(Cl)cc34)C(=O)NC2=O)c2ccccc21` [Cpd 31, 3-(5-chlorobenzo[b]thien-3-yl)-4-[1-[3-(dimethylamino)propyl]-1H-indol-3-yl]-1H-pyrrole-2,5-dione], the IC50 in experiment [2] is 81 nM; in experiment [3], 83 nM.
`CN(CCO)CCn1cc(C2=C(c3csc4ccc(Cl)cc34)C(=O)NC2=O)c2ccccc21` [Cpd 41, 3-(5-chlorobenzo[b]thien-3-yl)-4-(1-[2-[(2-hydroxyethyl)methylamino]ethyl]-1H-indol-3-yl]-1H-pyrrole-2,5-dione]: in experiment [1], the “GSK-3β Assay Activity, % @ 200 nM” value was found to be 81% @ 200 nM.
In the case of `O=C1NC(=O)C(c2cn(CCN3CCSC3)c3ccccc23)=C1c1csc2ccc(Cl)cc12` [Cpd 46, 3-(5-chlorobenzo[b]thien-3-yl)-4-[1-[2-(3-thiazolidinyl)ethyl]-1H-indol-3-yl]-1H-pyrrole-2,5-dione], the “GSK-3β Assay Activity, % @ 200 nM” value in experiment [1] is on record as 45% @ 200 nM.
Turning to `COc1ccccc1C1=C(c2cn(C3CCOCC3)c3ccccc23)C(=O)NC1=O` [Cpd 55, 3-(2-Methoxyphenyl)-4-[1-(tetrahydropyran-4-yl)-1H-indol-3-yl]-1H-pyrrole-2,5-dione], the IC50 turned out to be 107 nM in experiment [2], 412 nM in experiment [3], 282 nM in experiment [4] and 25 nM in experiment [1].
For the compound `COc1ccccc1C1=C(c2cn(-c3cncc(C(=O)O)c3)c3ccc(Cl)cc23)C(=O)NC1=O` [Cpd 56, 5-{5-Chloro-3-[4-(2-methoxyphenyl)-2,5-dioxo-2,5-dihydro-1H-pyrrol-3-yl]-indol-1-yl}-nicotinic acid], the IC50 was found to be 42 nM in experiment [2], 592 nM in experiment [3], 832 nM in experiment [4] and 51 nM in experiment [1].
`COC(=O)c1cncc(-n2cc(C3=C(c4ccccc4OC)C(=O)NC3=O)c3cc(Cl)ccc32)c1` [Cpd 57, 5-{5-Chloro-3-[4-(2-methoxyphenyl)-2,5-dioxo-2,5-dihydro-1H-pyrrol-3-yl]-indol-1-yl}-nicotinic acid methyl ester]: the IC50 in experiment [1] came out at 40 nM.
For the compound `COc1ccccc1C1=C(c2cn(-c3cncc(C(N)=O)c3)c3ccc(Cl)cc23)C(=O)NC1=O` [Cpd 58, 5-{5-Chloro-3-[4-(2-methoxyphenyl)-2,5-dioxo-2,5-dihydro-1H-pyrrol-3-yl]-indol-1-yl}-nicotinamide], the IC50 in experiment [2] is 32 nM; in experiment [3] it was 816 nM; in experiment [4] it was 1270 nM; in experiment [1], 18 nM.
